Measurements reported in US7153993B2, “Process for making polymorphic form A of 4-[6-acetyl-3-[3-(4-acetyl-3-hydroxy-2-propylphenylthio)propoxy]-2-propylphenoxy]butyric acid” (Medicinova, Inc., priority 2003, dated 2006).
≈ marks a conversion by molar mass, not a printed value. Values belong to the molecule of their own block, whether it stands above or below them.

What was measured:
[1] = Solubility of crystalline polymorphs in ether; type: physicochemical
Description: After re-crystallization with individual solvents, compound (1) was subjected to powder X-ray diffractometry, thermal analysis and determination of solubility in ether; thus an exploratory evaluation of the crystalline polymorphism was made.

[2] = Oral activity for treatment of asthma and allergic diseases; type: in vivo
[3] = Solubility of compound (1) in ethanol/water (2:1); type: physicochemical; conditions: stirred one hour
Description: Samples of compound (1) (5 g) were suspended in ethanol/water (2:1, 100 mL) and stirred for one hour at temperatures of 22° C., 30° C., and 40° C., respectively. The suspensions were filtered and the solids dried in a vacuum oven at room temperature overnight to give the insoluble material. The solubilities were calculated by subtractive means based on recovered material.

Solubility in ether ([1]; ether, listed as IV): 45.8 mg/mL (≈ 86.3 mM)
Structure (SMILES): CCCc1c(SCCCOc2ccc(C(C)=O)c(OCCCC(=O)O)c2CCC)ccc(C(C)=O)c1O [Form IV, 4-[6-acetyl-3-[3-(4-acetyl-3-hydroxy-2-propylphenylthio)propoxy]-2-propylphenoxy]butyric acid]

Structure (SMILES): CCCc1c(SCCCOc2ccc(C(C)=O)c(OCCCC(=O)O)c2CCC)ccc(C(C)=O)c1O [Compound (1), 4-[6-acetyl-3-[3-(4-acetyl-3-hydroxy-2-propylphenylthio)propoxy]-2-propylphenoxy]butyric acid]
oral activity for treatment of asthma and allergic diseases [2]: orally active

Solubility in ethanol/water (2:1) ([3]; 22° C.): 3.4 mg/mL (≈ 6.41 mM)
Solubility in ethanol/water (2:1) ([3]; 30° C.): 6.1 mg/mL (≈ 11.5 mM)
Solubility in ethanol/water (2:1) ([3]; 40° C.): 17.2 mg/mL (≈ 32.4 mM)
Structure (SMILES): CCCc1c(SCCCOc2ccc(C(C)=O)c(OCCCC(=O)O)c2CCC)ccc(C(C)=O)c1O [undesired monoclinic polymorph, 4-[6-acetyl-3-[3-(4-acetyl-3-hydroxy-2-propylphenylthio)propoxy]-2-propylphenoxy]butyric acid]

Solubility in ether ([1]; ether, listed as I): 36.7 mg/mL (≈ 69.2 mM)
Structure (SMILES): CCCc1c(SCCCOc2ccc(C(C)=O)c(OCCCC(=O)O)c2CCC)ccc(C(C)=O)c1O [Form I, 4-[6-acetyl-3-[3-(4-acetyl-3-hydroxy-2-propylphenylthio)propoxy]-2-propylphenoxy]butyric acid]

Solubility in ether ([1]; ether, listed as V): 47.6 mg/mL (≈ 89.7 mM)
solubility compared to the other polymorphs ([1]; qualitative statement, solvent not stated): superior to the other polymorphs
Solubility in ethanol/water (2:1) ([3]; 30° C., listed as V (form A)): 15.7 mg/mL (≈ 29.6 mM)
Solubility in ethanol/water (2:1) ([3]; 40° C., listed as V (form A)): 46 mg/mL (≈ 86.7 mM)
solubility at 1 h ([3]; ethanol/water (2:1), 22 °C, organic solvent or mixture, thermodynamic from solid, 22° C.): 6.7 mg/mL (≈ 12.6 mM)
Structure (SMILES): CCCc1c(SCCCOc2ccc(C(C)=O)c(OCCCC(=O)O)c2CCC)ccc(C(C)=O)c1O [Form V, 4-[6-acetyl-3-[3-(4-acetyl-3-hydroxy-2-propylphenylthio)propoxy]-2-propylphenoxy]butyric acid]

solubility ([1]; ether, organic solvent or mixture): 40.5 mg/mL (≈ 76.3 mM)
Structure (SMILES): CCCc1c(SCCCOc2ccc(C(C)=O)c(OCCCC(=O)O)c2CCC)ccc(C(C)=O)c1O [Form II, 4-[6-acetyl-3-[3-(4-acetyl-3-hydroxy-2-propylphenylthio)propoxy]-2-propylphenoxy]butyric acid]

Solubility in ether ([1]; ether, listed as III): 35.3 mg/mL (≈ 66.5 mM)
Structure (SMILES): CCCc1c(SCCCOc2ccc(C(C)=O)c(OCCCC(=O)O)c2CCC)ccc(C(C)=O)c1O [Form III, 4-[6-acetyl-3-[3-(4-acetyl-3-hydroxy-2-propylphenylthio)propoxy]-2-propylphenoxy]butyric acid]
